Laboratory results reported in patent US11033539B2, “Compounds of formulas (VII), (VIII), (IX), (XI), (XII), (XIII), and (XIV) as muscarinic receptor 4(M4) antagonists for treating neurological diseases” (Neurocrine Biosciences, Inc., priority 2015, dated 2021).

Key:
human M2 receptor = human M2 receptor (Homo sapiens (Human), UniProt P08172); assay: Radioligand (tritiated N-methylscopolamine) binding assay, M2; settings: CHO cell membranes expressing human M2; 1.5 nM tritiated N-methylscopolamine; 90 min, 37° C.; read-out: Ki against M2 receptor (Table 21, M2)
Procedure: (§1) Binding affinity (Ki) of compounds was measured by inhibition of radioligand binding to membranes from CHO cells expressing human M1, M2, M3, M4 and M5 receptors. Membranes were prepared by nitrogen cavitation and differential centrifugation as previously described (Hoare et al., Mol. Pharmacol. 2003 March; 63(3): 751-65). The radioligand employed was tritiated N-methylscopolamine, used at a concentration of 1.5 nM. A dose-response of twelve concentrations of compound was used, ranging from 10 μM to […]. The assay buffer was 50 mM HEPES, 100 mM NaCl, 5 mM MgCl2, 1 mM ethylenediaminetetraacetic acid, pH-adjusted to pH 7.4. Membranes, radioligand and compound were incubated together for 90 minutes at 37° C., in a total volume of 150 μl in a 96-well plate. Receptor-bound radioligand was then collected by harvesting the assay over glass fiber filters pretreated with polyethylenimine to trap the cell membranes, using rapid vacuum filtration. Harvesting and radioactivity counting was conducted as previously described (see, e.g., Hoare et al., Mol. Pharmacol. 2003 63(3):751-65); Erratum at Mol. Pharmacol. 2005 July; 68(1): 260).

human M1 receptor = human M1 receptor (Homo sapiens (Human), UniProt P11229); assay: Radioligand (tritiated N-methylscopolamine) binding assay, M1; settings: CHO cell membranes expressing human M1; 1.5 nM tritiated N-methylscopolamine; 90 min, 37° C.; read-out: Ki against M1 receptor (Table 21, M1)
Procedure: as §1

human M3 receptor = human M3 receptor (Homo sapiens (Human), UniProt P20309); assay: Radioligand (tritiated N-methylscopolamine) binding assay, M3; settings: CHO cell membranes expressing human M3; 1.5 nM tritiated N-methylscopolamine; 90 min, 37° C.; read-out: Ki against M3 receptor (Table 21, M3)
Procedure: as §1

human M5 receptor = human M5 receptor (Homo sapiens (Human), UniProt P08912); assay: Radioligand (tritiated N-methylscopolamine) binding assay, M5; settings: CHO cell membranes expressing human M5; 1.5 nM tritiated N-methylscopolamine; 90 min, 37° C.; read-out: Ki against M5 receptor (Table 21, M5)
Procedure: as §1

human M4 receptor = human M4 receptor (Homo sapiens (Human), UniProt P08173); assay: Radioligand (tritiated N-methylscopolamine) binding assay, M4; settings: Ki against the M4 receptor; membranes from CHO cells expressing human M4; tritiated N-methylscopolamine 1.5 nM; read-out: Ki
Procedure, shortened: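 Ki values come from displacement of 1.5 nM radioligand from membranes of receptor-expressing CHO cells, with filter-trapped radioactivity counted after rapid vacuum filtration. Twelve compound concentrations (10 μM to […]) were incubated for 90 min at 37 °C at pH 7.4.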

Sequence of human M5 receptor (P08912 whole entry): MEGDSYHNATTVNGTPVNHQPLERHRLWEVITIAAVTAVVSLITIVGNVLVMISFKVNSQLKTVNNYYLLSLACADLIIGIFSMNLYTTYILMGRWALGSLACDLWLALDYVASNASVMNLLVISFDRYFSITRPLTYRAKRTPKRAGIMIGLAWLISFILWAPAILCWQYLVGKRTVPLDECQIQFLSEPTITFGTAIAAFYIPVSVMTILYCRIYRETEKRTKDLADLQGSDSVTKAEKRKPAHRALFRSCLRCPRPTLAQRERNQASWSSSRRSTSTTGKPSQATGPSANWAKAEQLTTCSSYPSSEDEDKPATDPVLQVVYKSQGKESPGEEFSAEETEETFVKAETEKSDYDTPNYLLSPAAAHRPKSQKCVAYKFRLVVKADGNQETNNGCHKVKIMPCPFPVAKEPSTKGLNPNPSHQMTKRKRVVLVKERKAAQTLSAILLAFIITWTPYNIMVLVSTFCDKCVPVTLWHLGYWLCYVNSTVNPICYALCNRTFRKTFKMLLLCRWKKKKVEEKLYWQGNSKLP
Sequence of human M3 receptor (P20309 whole entry): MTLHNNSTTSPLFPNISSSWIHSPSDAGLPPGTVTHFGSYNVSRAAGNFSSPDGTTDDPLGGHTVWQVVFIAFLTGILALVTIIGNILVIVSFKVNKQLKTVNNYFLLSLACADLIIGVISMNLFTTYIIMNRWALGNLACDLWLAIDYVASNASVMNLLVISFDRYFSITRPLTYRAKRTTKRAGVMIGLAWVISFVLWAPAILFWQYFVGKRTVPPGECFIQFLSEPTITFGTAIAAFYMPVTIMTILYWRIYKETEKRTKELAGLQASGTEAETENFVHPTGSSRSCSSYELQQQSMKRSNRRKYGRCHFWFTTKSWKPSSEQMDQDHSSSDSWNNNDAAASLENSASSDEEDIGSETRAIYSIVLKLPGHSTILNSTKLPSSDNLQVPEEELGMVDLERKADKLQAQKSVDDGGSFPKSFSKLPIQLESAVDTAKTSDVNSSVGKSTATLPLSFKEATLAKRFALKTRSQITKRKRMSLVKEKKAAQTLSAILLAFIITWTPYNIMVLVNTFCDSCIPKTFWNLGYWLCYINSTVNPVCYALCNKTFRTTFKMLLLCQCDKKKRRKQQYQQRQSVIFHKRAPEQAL
Sequence of human M4 receptor (P08173 whole entry): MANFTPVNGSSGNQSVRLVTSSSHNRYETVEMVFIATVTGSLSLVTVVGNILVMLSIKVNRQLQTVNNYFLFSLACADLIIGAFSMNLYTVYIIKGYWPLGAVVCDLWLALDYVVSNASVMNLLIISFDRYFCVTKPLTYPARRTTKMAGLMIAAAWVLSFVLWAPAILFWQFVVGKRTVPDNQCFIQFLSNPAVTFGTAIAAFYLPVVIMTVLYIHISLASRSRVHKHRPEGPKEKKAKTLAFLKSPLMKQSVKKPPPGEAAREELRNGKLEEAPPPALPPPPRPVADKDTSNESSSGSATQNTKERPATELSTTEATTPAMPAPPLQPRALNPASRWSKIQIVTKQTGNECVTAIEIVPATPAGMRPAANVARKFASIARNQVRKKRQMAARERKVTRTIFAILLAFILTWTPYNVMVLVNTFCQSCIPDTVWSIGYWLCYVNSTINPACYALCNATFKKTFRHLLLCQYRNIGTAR
Sequence of human M2 receptor (P08172 whole entry): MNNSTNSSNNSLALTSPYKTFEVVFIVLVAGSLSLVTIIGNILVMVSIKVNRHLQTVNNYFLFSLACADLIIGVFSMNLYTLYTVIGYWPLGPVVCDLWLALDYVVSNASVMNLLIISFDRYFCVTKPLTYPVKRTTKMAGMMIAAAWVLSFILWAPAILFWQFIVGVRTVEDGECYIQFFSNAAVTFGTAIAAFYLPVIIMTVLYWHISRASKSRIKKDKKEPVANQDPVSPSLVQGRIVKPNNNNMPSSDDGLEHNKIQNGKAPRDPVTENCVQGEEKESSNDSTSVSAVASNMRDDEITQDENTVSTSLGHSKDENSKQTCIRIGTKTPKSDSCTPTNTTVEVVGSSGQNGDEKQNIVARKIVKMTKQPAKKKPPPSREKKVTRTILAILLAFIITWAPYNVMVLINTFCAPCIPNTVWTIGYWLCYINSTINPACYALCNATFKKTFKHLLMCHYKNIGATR
Sequence of human M1 receptor (P11229 whole entry): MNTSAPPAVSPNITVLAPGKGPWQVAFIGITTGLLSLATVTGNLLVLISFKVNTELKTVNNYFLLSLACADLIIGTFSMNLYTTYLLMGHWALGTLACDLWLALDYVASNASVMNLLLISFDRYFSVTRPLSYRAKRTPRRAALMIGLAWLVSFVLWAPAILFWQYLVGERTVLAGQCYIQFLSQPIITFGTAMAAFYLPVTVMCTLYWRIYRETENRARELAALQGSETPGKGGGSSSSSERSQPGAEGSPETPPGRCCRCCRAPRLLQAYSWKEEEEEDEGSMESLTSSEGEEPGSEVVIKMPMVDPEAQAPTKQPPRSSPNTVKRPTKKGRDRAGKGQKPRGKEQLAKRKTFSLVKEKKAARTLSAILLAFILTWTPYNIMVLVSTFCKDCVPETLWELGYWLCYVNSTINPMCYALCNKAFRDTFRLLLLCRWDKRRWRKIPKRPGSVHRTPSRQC

Compound	Ki (human M2 receptor) [nM]	Ki (human M1 receptor) [nM]	Ki (human M3 receptor) [nM]	Ki (human M5 receptor) [nM]	Ki (human M4 receptor) [nM]
C[C@@H]1CN(c2cc(F)c(F)c(F)c2)CCN1C(=O)NC[C@H](O)C1CCN(Cc2ccccc2)CC1 [3-16, (2R)-N-[(2R)-2-(1-benzylpiperidin-4-yl)-2-hydroxyethyl]-2-methyl-4-(3,4,5-trifluorophenyl)piperazine-1-carboxamide]	> 1000	> 1000	> 1000	> 1000	< 10
C[C@@H]1CN(c2cc(F)c(F)c(F)c2)CCN1C(=O)NCCC1CCN(Cc2ccccc2)CC1CO (stereo partly drawn) [3-17, (2R)-N-{2-[1-benzyl-3-(hydroxymethyl)piperidin-4-yl]ethyl}-2-methyl-4-(3,4,5-trifluorophenyl)piperazine-1-carboxamide]	100 to 1000	> 1000	> 1000	> 1000	< 10
C[C@@H]1CN(c2ccc(F)c(C#N)c2)CCN1C(=O)NC[C@@H](O)C1CCN(Cc2ccccc2)CC1 [3-18, (2R)-N-[(2S)-2-(1-benzylpiperidin-4-yl)-2-hydroxyethyl]-4-(3-cyano-4-fluorophenyl)-2-methylpiperazine-1-carboxamide]	> 1000	> 1000	> 1000	> 1000	< 10
O=C(NCCC1CCN(Cc2ccccc2)CC1CO)N1CCN(c2cc(F)c(F)c(F)c2)CC1 (stereo not drawn) [3-19, N-{2-[1-benzyl-3-(hydroxymethyl)piperidin-4-yl]ethyl}-4-(3,4,5-trifluorophenyl)piperazine-1-carboxamide]	100 to 1000	> 1000	> 1000	> 1000	< 10
C[C@@H]1CN(c2ccc(OC(F)(F)F)c(C#N)c2)CCN1C(=O)NC[C@@H](O)C1CCN(Cc2ccccc2)CC1 [3-21, (2R)-N-[(2S)-2-(1-benzylpiperidin-4-yl)-2-hydroxyethyl]-4-[3-cyano-4-(trifluoromethoxy)phenyl]-2-methylpiperazine-1-carboxamide]	100 to 1000	> 1000	> 1000	> 1000	< 10
C[C@@H]1CN(c2cc(F)c(F)c(F)c2)CCN1C(=O)NC[C@@H](O)C1CCN(Cc2ccccc2)CC1 [3-22, (2R)-N-[(2S)-2-(1-benzylpiperidin-4-yl)-2-hydroxyethyl]-2-methyl-4-(3,4,5-trifluorophenyl)piperazine-1-carboxamide]	100 to 1000	> 1000	> 1000	> 1000	< 10
C[C@@H]1CN(c2ccc(C#N)cn2)C[C@H](C)N1C(=O)NCCC1CCN(Cc2ccccc2)CC1 [3-23, (2S,6R)-N-[2-(1-benzylpiperidin-4-yl)ethyl]-4-(5-cyanopyridin-2-yl)-2,6-dimethylpiperazine-1-carboxamide]	100 to 1000	> 1000	> 1000	> 1000	< 10
C[C@@H]1CN(c2ccc(F)c(C#N)c2)CCN1C(=O)NCCC1CCN(Cc2ccccc2)CC1 [4-1, (2R)-N-[2-(1-benzylpiperidin-4-yl)ethyl]-4-(3-cyano-4-fluorophenyl)-2-methylpiperazine-1-carboxamide]	100 to 1000	100 to 1000	> 1000	> 1000	< 10
Cc1ccc(N2CCN(C(=O)NCCC3CCN(Cc4ccccc4)CC3)[C@H](C)C2)cc1F [4-13, (2R)-N-[2-(1-benzylpiperidin-4-yl)ethyl]-4-(3-fluoro-4-methylphenyl)-2-methylpiperazine-1-carboxamide]	100 to 1000	> 1000	> 1000	> 1000	< 10
C[C@@H]1CN(c2ccc(F)c(F)c2)CCN1C(=O)NCCC1CCN(Cc2ccccc2)CC1 [4-15, (2R)-N-[2-(1-benzylpiperidin-4-yl)ethyl]-4-(3,4-difluorophenyl)-2-methylpiperazine-1-carboxamide]	100 to 1000	100 to 1000	> 1000	> 1000	< 10
C[C@@H]1CN(C(=O)NCCC2CCN(Cc3ccccc3)CC2)CCN1c1cc(F)c(F)c(F)c1 [4-17, (3R)-N-[2-(1-benzylpiperidin-4-yl)ethyl]-3-methyl-4-(3,4,5-trifluorophenyl)piperazine-1-carboxamide]	100 to 1000	> 1000	> 1000	> 1000	< 10
C[C@@H]1CN(C(=O)NCCC2CCN(Cc3ccccc3)CC2)CCN1c1ccc(OC(F)(F)F)cc1 [4-18, (3R)-N-[2-(1-benzylpiperidin-4-yl)ethyl]-3-methyl-4-[4-(trifluoromethoxy)phenyl]piperazine-1-carboxamide]	100 to 1000	> 1000	> 1000	> 1000	< 10
Cc1nc(N2CCN(C(=O)NCCC3CCN(Cc4ccccc4)CC3)[C@H](C)C2)ccc1F [4-19, (2R)-N-[2-(1-benzylpiperidin-4-yl)ethyl]-4-(5-fluoro-6-methylpyridin-2-yl)-2-methylpiperazine-1-carboxamide]	100 to 1000	100 to 1000	> 1000	> 1000	< 10

Continued, values first:

Ki (human M2 receptor) [nM]	Ki (human M1 receptor) [nM]	Ki (human M3 receptor) [nM]	Ki (human M5 receptor) [nM]	Ki (human M4 receptor) [nM]	Compound
100 to 1000	> 1000	> 1000	> 1000	< 10	C[C@@H]1CN(c2cc(F)cc(C#N)c2)CCN1C(=O)NCCC1CCN(Cc2ccccc2)CC1 [3-11, (2R)-N-[2-(1-benzylpiperidin-4-yl)ethyl]-4-(3-cyano-5-fluorophenyl)-2-methylpiperazine-1-carboxamide]
10 to 100	100 to 1000	> 1000	> 1000	< 10	C[C@@H]1CN(c2cc(F)c(F)c(F)c2)CCN1C(=O)NCCC1CCN(Cc2ccccc2)CC1 [3-12, (2R)-N-[2-(1-benzylpiperidin-4-yl)ethyl]-2-methyl-4-(3,4,5-trifluorophenyl)piperazine-1-carboxamide]
100 to 1000	100 to 1000	> 1000	> 1000	< 10	C[C@@H]1CN(c2ccc(OC(F)(F)F)cn2)CCN1C(=O)NCCC1CCN(Cc2ccccc2)CC1 [3-13, (2R)-N-[2-(1-benzylpiperidin-4-yl)ethyl]-2-methyl-4-[5-(trifluoromethoxy)pyridin-2-yl]piperazine-1-carboxamide]
10 to 100	100 to 1000	> 1000	> 1000	< 10	C[C@@H]1CN(c2ccc(C(F)(F)F)cn2)CCN1C(=O)NCCC1CCN(Cc2ccccc2)CC1 [3-14, (2R)-N-[2-(1-benzylpiperidin-4-yl)ethyl]-2-methyl-4-[5-(trifluoromethyl)pyridin-2-yl]piperazine-1-carboxamide]
10 to 100	100 to 1000	> 1000	> 1000	< 10	C[C@@H]1CN(c2ccc(C(F)(F)F)cc2)CCN1C(=O)NCCC1CCN(Cc2ccccc2)CC1 [4-5, (2R)-N-[2-(1-benzylpiperidin-4-yl)ethyl]-2-methyl-4-[4-(trifluoromethyl)phenyl]piperazine-1-carboxamide]
10 to 100	100 to 1000	100 to 1000	100 to 1000	< 10	C[C@H]1CN(c2ccc(OC(F)(F)F)cc2)CCN1C(=O)NCCC1CCN(Cc2ccccc2)CC1 [4-10, (2S)-N-[2-(1-benzylpiperidin-4-yl)ethyl]-2-methyl-4-[4-(trifluoromethoxy)phenyl]piperazine-1-carboxamide]
10 to 100	100 to 1000	> 1000	> 1000	< 10	C[C@@H]1CN(c2nc(Cl)cc(C#N)n2)C[C@H](C)N1C(=O)NCCC1CCN(Cc2ccccc2)CC1 [4-11, (2S,6R)-N-[2-(1-benzylpiperidin-4-yl)ethyl]-4-(4-chloro-6-cyanopyrimidin-2-yl)-2,6-dimethylpiperazine-1-carboxamide]
10 to 100	100 to 1000	100 to 1000	> 1000	< 10	C[C@@H]1CN(c2cc(C(F)(F)F)ccn2)CCN1C(=O)NCCC1CCN(Cc2ccccc2)CC1 [4-12, (2R)-N-[2-(1-benzylpiperidin-4-yl)ethyl]-2-methyl-4-[4-(trifluoromethyl)pyridin-2-yl]piperazine-1-carboxamide]
